The results in this text go back to patent publication US11337976B2 (Plexxikon Inc., priority 2011, dated 2022).

Where only a bound is given, the exact number is not on record here.

The subject of this test is A375 melanoma cells (B-Raf V600E mutation). The test can be described thus: A375 (A375_P-ERK) cell activity / cell growth inhibition assay. It is filed as cell-based, human. The conditions noted are these: Homo sapiens, A-375; A375 cells (text: A375_P-ERK). The procedure: Compounds are assessed in a variety of cell based assays. For example human cell lines with B-RafV600E mutation (A375 melanoma, SKMEL3 melanoma, and COLO205 colon adenocarcinoma), as well as tumorigenic cell lines with wild-type B-RAF (SW620 colon adenocarcinoma) or with Ras mutations (SKMEL2 melanoma and IPC298 melanoma).
On day 1, cells are counted, then centrifuged in a conical tube for 5 minutes at 1000 rpm.
On day 2, compound at a maximum concentration of 5 mM is serially diluted 1:3 (e.g. 10 μL with 30 μL dimethyl sulfoxide) for a total of 8 point titration with DMSO as a control. A 1 μL aliquot of each dilution point and control is added to 249 μL growth media and 50 μL is added to a well containing cells, providing 10 μM compound at the maximum concentration point. The cells are incubated for 3 days at 37° C. in 5% CO2.
ATPlite is added 25 μL to each well, shake for 2 minutes, and the cells are incubated at room temperature for 10 minutes, then luminescence is read on Safire reader. The measured luminescence correlates directly with cell number, such that the reading as a function of compound concentration is used to determine the IC50 value.
A word on the IC50: it is the concentration at which inhibition is half-maximal. Higher therefore signals weaker potency in that assay. On to `O=C(c1cccc(NS(=O)(=O)N2CCCC2)c1F)c1c[nH]c2ncc(-c3cnc(N4CCCC4)nc3)cc12` [P-0109, N-[2-fluoro-3-[5-(2-pyrrolidin-1-ylpyrimidin-5-yl)-1H-pyrrolo[2,3-b]pyridine-3-carbonyl]phenyl]pyrrolidine-1-sulfonamide], for which the IC50 is less than 1 µM.

Compound `CN(C)S(=O)(=O)Nc1cccc(C(=O)c2c[nH]c3ncc(I)cc23)c1F` [P-0110, 3-[3-(dimethylsulfamoylamino)-2-fluoro-benzoyl]-5-iodo-1H-pyrrolo[2,3-b]pyridine] had an IC50 of less than 1 µM.

`CCCN(C)S(=O)(=O)Nc1cccc(C(=O)c2c[nH]c3ncc(-c4cnc(C)nc4)cc23)c1F` [P-0111, 3-[2-fluoro-3-[[methyl(propyl)sulfamoyl]amino]benzoyl]-5-(2-methylpyrimidin-5-yl)-1H-pyrrolo[2,3-b]pyridine] showed an IC50 of less than 1 µM.

For the compound `Cc1ncc(-c2cnc3[nH]cc(C(=O)c4cccc(NS(=O)(=O)N(C)CC5CC5)c4F)c3c2)cn1` [P-0112, 3-[3-[[cyclopropylmethyl(methyl)sulfamoyl]amino]-2-fluoro-benzoyl]-5-(2-methylpyrimidin-5-yl)-1H-pyrrolo[2,3-b]pyridine], the IC50 is less than 1 µM.

`CN(C)S(=O)(=O)Nc1cccc(C(=O)c2c[nH]c3ncc(-c4ccc(C5CC5)nc4)cc23)c1F` [P-0113, 5-(6-cyclopropyl-3-pyridyl)-3-[3-(dimethylsulfamoylamino)-2-fluoro-benzoyl]-1H-pyrrolo[2,3-b]pyridine] displayed an IC50 of less than 1 µM.

Take `CCCN(C)S(=O)(=O)Nc1cccc(C(=O)c2c[nH]c3ncc(-c4ccc(C5CC5)nc4)cc23)c1F` [P-0114, 5-(6-cyclopropyl-3-pyridyl)-3-[2-fluoro-3-[[methyl(propyl)sulfamoyl]amino]benzoyl]-1H-pyrrolo[2,3-b]pyridine]: the half-inhibitory concentration (IC50) was less than 1 µM.

As for `CN(CC1CC1)S(=O)(=O)Nc1cccc(C(=O)c2c[nH]c3ncc(-c4ccc(C5CC5)nc4)cc23)c1F` [P-0115, 3-[3-[[cyclopropylmethyl(methyl)sulfamoyl]amino]-2-fluoro-benzoyl]-5-(6-cyclopropyl-3-pyridyl)-1H-pyrrolo[2,3-b]pyridine], the IC50 was less than 1 µM.

On to `CCCN(C)S(=O)(=O)Nc1ccc(F)c(C(=O)c2c[nH]c3ncc(-c4cnc(OC)nc4)cc23)c1F` [P-0116, 3-[2,6-difluoro-3-[[methyl(propyl)sulfamoyl]amino]benzoyl]-5-(2-methoxypyrimidin-5-yl)-1H-pyrrolo[2,3-b]pyridine], for which the IC50 is less than 1 µM.

`CCCNS(=O)(=O)Nc1cccc(C(=O)c2c[nH]c3ncc(I)cc23)c1F` [P-0117, [2-fluoro-3-(propylsulfamoylamino)phenyl]-(5-iodo-1H-pyrrolo[2,3-b]pyridin-3-yl)methanone] registered an IC50 greater than 1 µM.

With `CCC(C)S(=O)(=O)Nc1cccc(C(=O)c2c[nH]c3ncc(-c4cnc(OC)nc4)cc23)c1F` (centres unmarked) [P-0224, N-[2-fluoro-3-[5-(2-methoxypyrimidin-5-yl)-1H-pyrrolo[2,3-b]pyridine-3-carbonyl]phenyl]butane-2-sulfonamide], the half-maximal inhibitory concentration (IC50) is less than 1 µM.

Compound `CCC(C)S(=O)(=O)Nc1cccc(C(=O)c2c[nH]c3ncc(-c4cnc(N5CCCC5)nc4)cc23)c1F` (centres unmarked) [P-0225, N-[2-fluoro-3-[5-(2-pyrrolidin-1-ylpyrimidin-5-yl)-1H-pyrrolo[2,3-b]pyridine-3-carbonyl]phenyl]butane-2-sulfonamide] showed an IC50 of less than 1 µM.

The compound `CCC(C)S(=O)(=O)Nc1cccc(C(=O)c2c[nH]c3ncc(-c4cnc(NC5CC5)nc4)cc23)c1F` (centres unmarked) [P-0226, N-[3-[5-[2-(cyclopropylamino)pyrimidin-5-yl]-1H-pyrrolo[2,3-b]pyridine-3-carbonyl]-2-fluoro-phenyl]butane-2-sulfonamide] returned an IC50 of less than 1 µM.

On to `CCC(C)S(=O)(=O)Nc1cccc(C(=O)c2c[nH]c3ncc(-c4ccc(C5(C#N)CC5)cc4)cc23)c1F` (centres unmarked) [P-0227, N-[3-[5-[4-(1-cyanocyclopropyl)phenyl]-1H-pyrrolo[2,3-b]pyridine-3-carbonyl]-2-fluoro-phenyl]butane-2-sulfonamide], for which the IC50 is less than 1 µM.

Compound `CCC(C)S(=O)(=O)Nc1cccc(C(=O)c2c[nH]c3ncc(-c4cnc(C5CC5)nc4)cc23)c1F` (centres unmarked) [P-0228, N-[3-[5-(2-cyclopropylpyrimidin-5-yl)-1H-pyrrolo[2,3-b]pyridine-3-carbonyl]-2-fluoro-phenyl]butane-2-sulfonamide] returned a 50% inhibitory concentration (IC50) of less than 1 µM.

Regarding `CCC(C)S(=O)(=O)Nc1cccc(C(=O)c2c[nH]c3ncc(-c4cnc(C(C)C)nc4)cc23)c1F` (centres unmarked) [P-0229, N-[2-fluoro-3-[5-(2-isopropylpyrimidin-5-yl)-1H-pyrrolo[2,3-b]pyridine-3-carbonyl]phenyl]butane-2-sulfonamide], the IC50 is less than 1 µM.

Compound `CCC(C)S(=O)(=O)Nc1cccc(C(=O)c2c[nH]c3ncc(-c4ccc(N(C)C)nc4)cc23)c1F` (centres unmarked) [P-0230, N-[3-[5-[6-(dimethylamino)-3-pyridyl]-1H-pyrrolo[2,3-b]pyridine-3-carbonyl]-2-fluoro-phenyl]butane-2-sulfonamide] showed a 50% inhibitory concentration (IC50) of less than 1 µM.

The compound `CCC(C)S(=O)(=O)Nc1cccc(C(=O)c2c[nH]c3ncc(-c4cnc(C)nc4)cc23)c1F` (centres unmarked) [P-0231, N-[2-fluoro-3-[5-(2-methylpyrimidin-5-yl)-1H-pyrrolo[2,3-b]pyridine-3-carbonyl]phenyl]butane-2-sulfonamide] had an IC50 of less than 1 µM.

`O=C(c1cccc(NS(=O)(=O)N2CCCC2)c1F)c1c[nH]c2ncc(-c3cnc(N4CCOCC4)nc3)cc12` [P-0235, N-[2-fluoro-3-[5-(2-morpholinopyrimidin-5-yl)-1H-pyrrolo[2,3-b]pyridine-3-carbonyl]phenyl]pyrrolidine-1-sulfonamide] yielded an IC50 of less than 1 µM.

Consider `CCC(C)S(=O)(=O)Nc1cccc(C(=O)c2c[nH]c3ncc(-c4cnc(N5CCOCC5)nc4)cc23)c1F` (centres unmarked) [P-0236, N-[2-fluoro-3-[5-(2-morpholinopyrimidin-5-yl)-1H-pyrrolo[2,3-b]pyridine-3-carbonyl]phenyl]butane-2-sulfonamide], for which the IC50 is less than 1 µM.

In turn, `CN(C)S(=O)(=O)Nc1ccc(F)c(C(=O)c2c[nH]c3ncc(-c4ccc(C5(C#N)CC5)cc4)cc23)c1F` [P-0237, 5-[4-(1-cyanocyclopropyl)phenyl]-3-[3-(dimethylsulfamoylamino)-2,6-difluoro-benzoyl]-1H-pyrrolo[2,3-b]pyridine] yielded an IC50 of less than 1 µM.

The compound `CN(C)S(=O)(=O)Nc1ccc(F)c(C(=O)c2c[nH]c3ncc(-c4cnc(C5CC5)nc4)cc23)c1F` [P-0238, 5-(2-cyclopropylpyrimidin-5-yl)-3-[3-(dimethylsulfamoylamino)-2,6-difluoro-benzoyl]-1H-pyrrolo[2,3-b]pyridine] had an IC50 of less than 1 µM.

`CCN(C)S(=O)(=O)Nc1ccc(F)c(C(=O)c2c[nH]c3ncc(-c4ccc(C5(C#N)CC5)cc4)cc23)c1F` [P-0239, 5-[4-(1-cyanocyclopropyl)phenyl]-3-[3-[[ethyl(methyl)sulfamoyl]amino]-2,6-difluoro-benzoyl]-1H-pyrrolo[2,3-b]pyridine] returned a half-inhibitory concentration (IC50) of less than 1 µM.

For `CCN(C)S(=O)(=O)Nc1ccc(F)c(C(=O)c2c[nH]c3ncc(-c4cnc(C5CC5)nc4)cc23)c1F` [P-0240, 5-(2-cyclopropylpyrimidin-5-yl)-3-[3-[[ethyl(methyl)sulfamoyl]amino]-2,6-difluoro-benzoyl]-1H-pyrrolo[2,3-b]pyridine], the IC50 was less than 1 µM.

Turning to `O=C(c1c(F)ccc(NS(=O)(=O)N2CCCC2)c1F)c1c[nH]c2ncc(-c3cnc(C4CC4)nc3)cc12` [P-0241, N-[3-[5-(2-cyclopropylpyrimidin-5-yl)-1H-pyrrolo[2,3-b]pyridine-3-carbonyl]-2,4-difluoro-phenyl]pyrrolidine-1-sulfonamide], the IC50 is less than 1 µM.

The compound `CCCNS(=O)(=O)Nc1cccc(C(=O)c2c[nH]c3ncc(-c4cnn(C)c4)cc23)c1F` [P-0242, [2-fluoro-3-(propylsulfamoylamino)phenyl]-[5-(1-methylpyrazol-4-yl)-1H-pyrrolo[2,3-b]pyridin-3-yl]methanone] yielded an IC50 greater than 1 µM.

`O=C(c1cccc(NS(=O)(=O)N2CCCC2)c1F)c1c[nH]c2ncc(-c3ccc(C4(C(=O)O)CC4)cc3)cc12` [P-0243, 1-[4-[3-[2-fluoro-3-(pyrrolidin-1-ylsulfonylamino)benzoyl]-1H-pyrrolo[2,3-b]pyridin-5-yl]phenyl]cyclopropanecarboxylic acid]: the IC50 was greater than 1 µM.

As to `CC1CCN(S(=O)(=O)Nc2cccc(C(=O)c3c[nH]c4ncc(-c5cnc(C6CC6)nc5)cc34)c2F)C1` (centres unmarked) [P-0247, N-[3-[5-(2-cyclopropylpyrimidin-5-yl)-1H-pyrrolo[2,3-b]pyridine-3-carbonyl]-2-fluoro-phenyl]-3-methyl-pyrrolidine-1-sulfonamide], the half-inhibitory concentration (IC50) is less than 1 µM.

Regarding `N#CC1(c2ccc(-c3cnc4[nH]cc(C(=O)c5c(F)ccc(NS(=O)(=O)N6CCCC6)c5F)c4c3)cc2)CC1` [P-0248, N-[3-[5-[4-(1-cyanocyclopropyl)phenyl]-1H-pyrrolo[2,3-b]pyridine-3-carbonyl]-2,4-difluoro-phenyl]pyrrolidine-1-sulfonamide], the IC50 is less than 1 µM.

On to `CN(C1CC1)S(=O)(=O)Nc1cccc(C(=O)c2c[nH]c3ncc(-c4cnc(C5CC5)nc4)cc23)c1F` [P-0249, 3-[3-[[cyclopropyl(methyl)sulfamoyl]amino]-2-fluoro-benzoyl]-5-(2-cyclopropylpyrimidin-5-yl)-1H-pyrrolo[2,3-b]pyridine], for which the IC50 was less than 1 µM.
